Assays:
[1] = tested on: MIA PaCa2 human pancreatic cancer cells with KRAS G12C mutation; experiment: Cell experiment: anti-proliferative activity, CellTiter-Glo, MIA PaCa2; type: cell-based; conditions: 5 days culture
Experimental: (§1) This experiment is intended to verify that the compounds of the present invention have an inhibitory effect on the proliferation of NCI-H358 human non-small cell lung cancer cells with KRAS G12C mutation, MIA PaCa2 human pancreatic cancer cells with KRAS G12C mutation and wild-type A375 human malignant melanoma cells.
(§2) 40 μl of phosphate buffer was added to the peripheral wells of three 384-well microplates respectively, and 40 μl of cell suspension to be tested was added to the other wells of each plate respectively (plate 1: NCI-H358 cell suspension containing 500 NCI-H358 cells; plate 2: MIAPaCa2 cell suspension containing 300 MIAPaCa2 cells; plate 3: A375 cell suspension containing 300 A375 cells). The three cell plates were then placed in a carbon dioxide incubator and incubated overnight. Echo was used to perform a 3-fold gradient dilution of the compounds to be tested, and each compound was diluted with 10 concentration gradients (diluted from 50 μM to 0.003 μM), 100 nl of which was respectively added to the corresponding wells of the cell plates; after dosing, 40 μL of phosphate buffer was added to each well of rows A and P and columns 1 and 24, and then the cell plates were put back to the carbon dioxide incubator for culturing for 5 days. 20 μl of Promega CellTiter-Glo reagent per well was added to the cell plates, which was shaken at room temperature for 10 minutes in the dark to stabilize the luminescence signal. A PerkinElmer Envision multi-label analyzer was used for reading.
(§3) Data analysis: IC50 results were analyzed by GraphPad Prism 5.0 software […].

[2] = tested on: wild-type A375 human malignant melanoma cells; experiment: Cell experiment: anti-proliferative activity, CellTiter-Glo, A375; type: cell-based; conditions: Homo sapiens, A-375, 120 h, 5 days culture
Experimental: as §1, §2, §3

[3] = Liver microsome stability test, mouse; type: in vitro ADME; conditions: mouse liver microsomes, 0.5 mg protein/mL; read-out: mouse T1/2
Experimental: (§4) To test the metabolic stability of the test article in mice, rats and human liver microsomes.
(§5) 1. 10 μL of the test or control article working solution was added to all plates (T0, T5, T10, T20, T30, T60, NCF60).
(§6) 2. Liver microsome solution was dispensed into a 96-well plate at 680 μL/well, and addition was performed on each plate at 80 μL/well, and the above-mentioned incubation plate was placed at 37° C. for pre-incubation for about 10 minutes.
(§7) 4. After the pre-incubation, the NADPH regeneration system working solution was dispensed into the 96-well plate at 90 μL/well, and addition was performed on each plate at 10 μL/well to start the reaction.
(§8) 5. Incubation was performed for an appropriate time (e.g., 5, 10, 20, 30 and 60 minutes).
(§9) 6. 300 μL of the stopping solution (refrigerated at 4° C., containing 100 ng/mL of tolbutamide and 100 ng/mL of labetalol) was respectively added to each sample well.
(§10) T1/2 and Clint(mic) were calculated by the following formula.
(§11) Ct is the concentration at time t, with t being the incubation time; C0 is the concentration at 0; Ke is the elimination rate constant; Clint(mic) is the intrinsic clearance rate of liver microsomes; and Clint(liver) is the hepatic intrinsic clearance rate. CLint(mic)=0.693/half-life/mg microsomal protein per mL (microsome concentration during incubation) CLint(liver)=CLint(mic)×mg microsomal protein/g liver weight×ratio of liver weight to body weight

[4] = Liver microsome stability test, human; type: in vitro ADME; conditions: human liver microsomes, 0.5 mg protein/mL; read-out: Human T1/2
Experimental: as §4, §5, §6, §7, §8, §9, §10, §11

[5] = tested on: NCI-H358 human non-small cell lung cancer cells with KRAS G12C mutation; experiment: Cell experiment: anti-proliferative activity, CellTiter-Glo, NCI-H358; type: cell-based; conditions: Homo sapiens, NCI-H358, 120 h, 5 days culture
Experimental: as §1, §2, §3

[6] = Liver microsome stability test, rat; type: in vitro ADME; conditions: rat liver microsomes, 0.5 mg protein/mL; read-out: rat T1/2
Experimental: as §4, §5, §6, §7, §8, §9, §10, §11

[7] = tested on: human pancreatic cancer MIA-PaCa2 cell; experiment: In vivo drug efficacy test (1): subcutaneous xenograft tumor model; parameters: species or system BALB/c nude mice; conditions: for TGI: day 20
Experimental: To evaluate the in vivo efficacy of the test compounds in a subcutaneous xenograft tumor model of human pancreatic cancer MIA-PaCa2 cell.
BALB/c nude mice, female, 6-8 weeks old, weighing approximately 18-22 grams. Each mouse was subcutaneously inoculated with 0.2 mL (1×10^7) of MIA-PaCa2 cells (plus matrigel, with the volume ratio being 1:1) on the right back. The administration was performed when the average tumor volume reached about 169 cubic millimeters. The tumor volume was measured twice a week, with the volume measured in cubic millimeters, and calculated by the following formula: V=0.5 a×b^2, where a and b were the long and short diameters of the tumor, respectively. The tumor suppressive effect of the compounds was evaluated by TGI (%). TGI (%) reflects the tumor growth inhibition rate. Calculation of TGI (%): TGI (%)=[(1−(average tumor volume at the end of administration in a treatment group−average tumor volume at the beginning of administration in the treatment group))/(average tumor volume at the end of treatment in the solvent control group−average tumor volume at the beginning of treatment in the solvent control group)]×100%.

[8] = tested on: human non-small cell lung cancer NCI-H358; experiment: In vivo drug efficacy test (2): subcutaneous xenograft tumor model; parameters: species or system BALB/c nude mice; conditions: 100 mg/kg (0-6 days) + 50 mg/kg (7-20 days)
Experimental: To evaluate the in vivo efficacy of the test compounds in a subcutaneous xenograft tumor model of human non-small cell lung cancer NCI-H358.
BALB/c nude mice, female, 6-8 weeks old, weighing 18-21 grams. A total of 100 were required. They were provided by Shanghai Lingchang Experimental Animal Co., Ltd ( ? ? ). NCI-H358 tumor cells were resuspended in PBS to prepare 0.1 mL (5×10^6) of cell suspension, which was inoculated subcutaneously on the right back of each mouse (5×10^6/mouse) to wait for tumor growth. When the average tumor volume reached about 150-200 mm^3, randomized grouping and administration were performed, and the administration dose was shown in Table 6. The diameter of the tumor was measured with vernier calipers twice a week. The formula for calculating the tumor volume is: V=0.5a×b^2, wherein a and b represent the long and short diameters of the tumor, respectively. The tumor suppressive effect of the compounds was evaluated by TGI (%). TGI (%) reflects the tumor growth inhibition rate. Calculation of TGI (%): TGI (%)=[(1−(average tumor volume at the end of administration in a treatment group−average tumor volume at the beginning of administration in the treatment group))/(average tumor volume at the end of treatment in the solvent control group−average tumor volume at the beginning of treatment in the solvent control group)]×100%.

[9] = Homo sapiens, MIA PaCa-2, 120 h

Row | SMILES | IC50 [1, 9] [nM] | IC50 [2] [nM] | half-life [3] [h] | half-life [4] [h] | IC50 [5] [nM] | half-life [6] [h] | also measured
1 | C=CC(=O)N1CCN(c2ncnc3c(=O)n(-c4c(O)cccc4F)c(C(F)(F)F)cc23)CC1 [Example 2] | 6480 | > 50000 | > 2.42 | > 2.42 | 5360 | > 2.42 | Tumor volume (day 20) ([7]; 50 mg/kg orally daily): 457 ± 94 mm^3; TGI ([7]; 50 mg/kg orally daily): 35%; Tumor volume (day 20) ([7]; 200 mg/kg orally daily): 307 ± 61 mm^3; TGI ([7]; 200 mg/kg orally daily): 69%
2 | C=CC(=O)N1CCN(c2nc(N3CC(N(CC)CC)C3)nc3c(=O)n(-c4c(O)cccc4F)c(C(F)(F)F)cc23)CC1 [Example 9] |  |  | > 2.42 | > 2.42 |  | 0.772 | 
3 | C=CC(=O)N1CCN(c2nc(N3CC(N(CC)CC)C3)nc3c(=O)n(-c4c(C)ccc(N)c4C)c(C(F)(F)F)cc23)CC1 [Example 36] |  |  | > 2.42 | > 2.42 |  | > 2.42 | IC50 [1]: 1110 nM
4 | C=CC(=O)N1CCN(c2nc(N3CC(N(CC)CC)C3)nc3c(=O)n(-c4c(C)ccc5[nH]ncc45)c(C(F)(F)F)cc23)CC1 [Example 37] | 1440 | 19700 |  |  | 1050 |  | 
5 | C=CC(=O)N1CCN(c2nc(N3CC(N(CC)CC)C3)nc3c(=O)n(-c4c(O)c(Cl)cc(Cl)c4F)c(C(F)(F)F)cc23)CC1 [Example 46] | 1790 | > 50000 |  |  | 1950 |  | 
6 | C=CC(=O)N1CCN(c2ncnc3c(=O)n(-c4c(F)ccc(Cl)c4N)c(C(F)(F)F)cc23)CC1 [Example 47] | 820 | 27900 |  |  | 1000 |  | 
7 | C=CC(=O)N1CCN(c2ncnc3c(=O)n(-c4c(O)c(Cl)cc(Cl)c4F)c(C(F)(F)F)cc23)CC1 [Example 50] | 3900 | > 50000 |  |  | 5490 |  | 
8 | C=CC(=O)N1CCN(c2nc(N3CC(N(CC)CC)C3)nc3c(=O)n(-c4c(O)cccc4F)c(C(F)(F)F)cc23)CC1 [Formate of example 8] | 2310 | 39100 |  |  | 1410 |  | 

Continued by falling IC50 [1, 9], values first:

Row | IC50 [1, 9] [nM] | IC50 [2] [nM] | half-life [3] [h] | half-life [4] [h] | IC50 [5] [nM] | half-life [6] [h] | SMILES | also measured
9 | 370 | 29300 | > 2.42 | > 2.42 | 450 | > 2.42 | C=CC(=O)N1CCN(c2nc(N3CC(N(CC)CC)C3)nc3c(=O)n(-c4c(N)cccc4F)c(C(F)(F)F)cc23)CC1 (single isomer, unassigned) [Example 32] | 
10 | 160 | 12200 |  |  | 150 |  | C=CC(=O)N1CCN(c2nc(N3CC(N(CC)CC)C3)nc3c(=O)n(-c4c(F)ccc(Cl)c4N)c(C(F)(F)F)cc23)CC1 [Example 41] | 
11 | 130 | 20800 |  |  | 180 |  | C=CC(=O)N1CCN(c2ncnc3c(=O)n(-c4c(N)ccc(Cl)c4F)c(C(F)(F)F)cc23)CC1 [Example 48] | 
12 | 20 | 4570 |  |  | 10 |  | C=CC(=O)N1CCN(c2nc(N3CC(N(CC)CC)C3)nc3c(=O)n(-c4c(N)ccc(Cl)c4F)c(C(F)(F)F)cc23)CC1 [Example 42] | Tumor volume (day 20) [8]: 191 mm^3; TGI ([8]; day 20): 95.51%

Source: patent publication US11453667B2, “Pyridone-pyrimidine derivative acting as KRASG12C mutein inhibitor” (MEDSHINE DISCOVERY INC., priority 2018, dated 2022)
